Experimental data as given in paper PMC10287695, “Non-covalent inhibitors of thioredoxin glutathione reductase with schistosomicidal activity in vivo” (Nature Communications, 2023).
Several values for one entry are separate records, joined by “and”; a condition that tells them apart may be missing. Equal entries are not always repeated.

Tests used:
S. mansoni TGR = target: T1, S. mansoni TGR (Schistosoma mansoni, UniProt Q962Y6); test: S. mansoni TGR enzyme inhibition (DTNB reduction); type: biochemical
T1 construct: made in house
T1 sequence (Q962Y6 1-598): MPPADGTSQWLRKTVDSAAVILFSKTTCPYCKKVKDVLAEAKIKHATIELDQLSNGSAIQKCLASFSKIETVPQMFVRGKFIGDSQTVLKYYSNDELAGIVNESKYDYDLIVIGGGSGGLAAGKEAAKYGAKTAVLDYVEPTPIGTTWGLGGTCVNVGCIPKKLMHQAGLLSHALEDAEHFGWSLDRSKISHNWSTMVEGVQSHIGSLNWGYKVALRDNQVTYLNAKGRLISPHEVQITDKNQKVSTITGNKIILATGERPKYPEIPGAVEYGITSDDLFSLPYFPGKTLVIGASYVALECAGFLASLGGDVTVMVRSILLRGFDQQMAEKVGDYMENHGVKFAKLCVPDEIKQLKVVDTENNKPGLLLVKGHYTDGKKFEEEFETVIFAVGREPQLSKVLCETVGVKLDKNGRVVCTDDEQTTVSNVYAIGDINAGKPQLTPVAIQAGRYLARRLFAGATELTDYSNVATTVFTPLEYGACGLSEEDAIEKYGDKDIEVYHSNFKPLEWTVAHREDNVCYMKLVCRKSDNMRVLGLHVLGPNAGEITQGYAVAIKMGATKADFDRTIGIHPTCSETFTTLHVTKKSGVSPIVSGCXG
Protocol: Recombinant TGR, human TrxR1, B. malayi (Bm)TrxR and human GR proteins were expressed and purified as described[20],[69],[79]. The codon optimized sequence for P. falciparum (PfTrxR, https://www.ncbi.nlm.nih.gov/protein/CAA60574.1/) with an N-terminal 6-His tag was synthesized and inserted into pET15b (GenScript) and expressed in BL21 (DE3) cells and purified as described for human GR[20]. TGR and TrxR enzyme inhibition assays were performed in triplicate at 25 °C as described[20] in 0.1 M potassium phosphate (pH 7.4), 10 mM EDTA, 100 µM NADPH and 0.01% Tween-20. […] The reaction was started with addition of an equal volume of DTNB (6 mM) and NADPH (100 µM) and the increase in A412 during the first 3 min was recorded. […] The reaction was preincubated for 15 min. Activity was initiated with the addition of 1 mM GSSG and 100 μM NADPH and initial rates of NADPH oxidation were monitored at 340 nm. The reactions were done in triplicate. The IC50 was calculated in GraphPad Prism.

[1] = target: S. mansoni histone deacetylase 8 (Schistosoma mansoni, UniProt A5H660); test: Photolabeling of control protein SmHDAC8 with PRP; type: binding; details: for 800 nm Normalized Signal: SmHDAC8 1 µM
S. mansoni histone deacetylase 8, sequence (A5H660 entry or part of it): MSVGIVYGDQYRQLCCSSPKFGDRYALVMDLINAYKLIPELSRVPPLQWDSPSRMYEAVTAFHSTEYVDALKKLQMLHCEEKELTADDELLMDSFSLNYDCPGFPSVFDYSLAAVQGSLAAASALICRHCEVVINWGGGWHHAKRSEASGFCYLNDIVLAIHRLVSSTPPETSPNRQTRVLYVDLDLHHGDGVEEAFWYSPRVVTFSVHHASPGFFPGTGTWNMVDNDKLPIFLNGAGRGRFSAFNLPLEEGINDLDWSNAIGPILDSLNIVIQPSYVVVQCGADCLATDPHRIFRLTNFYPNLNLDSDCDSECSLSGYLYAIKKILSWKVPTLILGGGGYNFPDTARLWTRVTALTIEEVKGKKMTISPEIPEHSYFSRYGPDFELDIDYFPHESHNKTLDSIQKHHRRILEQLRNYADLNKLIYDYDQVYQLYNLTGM
Protocol: (§1) TGR (1 µM) or SmHDAC8 (1 µM) was incubated at concentrations of either 5 or 50 µM PRP with or without 100 µM NADPH totaling eight samples. The photocrosslinking and CuAAC click biotinylation were performed as previously described by our group. After resolving samples on SDS-PAGE and nitrocellulose membrane transfer, western blot normalization was performed with the Licor Revert™ 700 Total Protein Stain Kit as described in their protocol. Protein was finally imaged with the Licor IRDye® 800CW streptavidin on the Odyssey Sa imager.

recombinant TGR = target: T2, recombinant TGR (Schistosoma mansoni, UniProt Q962Y6); test: Photolabeling of TGR with PRP; type: binding, S. mansoni; details: for 800 nm Normalized Signal: TGR 1 µM
T2 construct: made in house
Protocol: as §1, with “TGR (1 µM) or SmHDAC8 (1 µM) was incubated at concentrations of either 5 or 50 µM PRP with or without 100 µM NADPH totaling eight samples.” left out

TGR [2] = target: T3, TGR (Schistosoma mansoni, UniProt Q962Y6, X597U); test: NADPH consumption (oxidase activity); type: biochemical, S. mansoni
T3 construct: made in house
Protocol: TRi-1, Stattic (both at 50 µM) and AF (20 µM) were incubated with 1 ml of 500 nM TGR and 100 µM NADPH in TGR reaction buffer for 30 min. The samples were desalted using a Zeba spin desalting column (Thermo Fisher Scientific) and 100 µl of the desalted sample was combined with 100 µl of 100 µM NADPH. NADPH consumption was monitored at 340 nm in triplicate. Compounds 1, 4, 6, and 7 (50 µM) were tested in the same fashion without the desalting step and with a first incubation step of 30 min for 6 and 7 and 2 h for 1 and 4.

TGR [3] = target: T4, TGR (Schistosoma mansoni, UniProt Q962Y6); test: Reversibility by jump dilution; type: biochemical
T4 construct: made in house
T4 sequence (Q962Y6 1-598): T1 sequence (Q962Y6 1-598)
Protocol: A reaction of 370 nM TGR, 100 µM NADPH, and 250 µM inhibitor was incubated for 15 min at room temperature. A 100x dilution of the reaction was made and the activity was determined immediately and after 60 min.

[4] = Reactivity with GSH or N-Boc protected methyl ester of selenocysteine (LCMS); type: physicochemical; details: up to 120 h
Protocol: Dimethyl bis(N-tert-butoxycarbonyl)-L-selenocystine was synthesized as reported previously. (N-tert-butoxycarbonyl)-L-selenocysteine methyl ester was prepared in situ[86] in methanol or phosphate buffer. Compound 2 was added to the solution of (N-tert-butoxycarbonyl)-L-selenocysteine methyl ester in either methanol or phosphate buffer and incubated for 40 min, 24 h, and 120 h under N2 gas balloon. Additional amounts of NaBH4 were added at 12 h and 96 h to maintain the reducing conditions. Aliquots taken from methanol solution at each of the time points were concentrated in vacuo, mixed with water, and extracted with ethyl acetate. The organic layer was separated, concentrated in vacuo, re-dissolved in methanol and analyzed by LCMS. Aliquots taken from the phosphate buffer solution were extracted with ethyl acetate. The resulting organic layer was separated and concentrated in vacuo. The residue was re-dissolved in methanol and analyzed by LCMS. […] No additional spots were detected by TLC as well.
Covalent TGR inhibitor TRi-1 was used as a positive control for the reaction with (N-tert-butoxycarbonyl)-L-selenocysteine methyl ester. The reactivity of TRi-1 was tested similarly as described above for compound 2.

TGR [5] = target: T3, TGR; test: Superoxide production (pyrogallol red); type: biochemical, S. mansoni; details: replicates
Protocol: The production of superoxide by TGR was determined by monitoring reaction of superoxide with pyrogallol red[80]. Briefly, a 1 ml reaction mix (500 nM TGR, 100 µM NADPH, and 20–50 µM inhibitor) was incubated at room temperature for 30 min for fast inhibitors, or 2 h for slow inhibitors. For irreversible inhibitor controls TRi-1 (synthesized in house as reported[45]), Stattic (Cayman Chemical), and AF (Cayman Chemical), the samples were desalted using a Zeba spin desalting column. 100 µL of sample was combined with pyrogallol buffer with and without superoxide dismutase (SOD) (50 µM pyrogallol red, 300 µM NADPH; ± 10 units SOD). The reaction was measured at A340 and A540 simultaneously for 2 h.

[6] = D0: diluted 1:100, activity determined immediately, list for plotting
[7] = D60: diluted 1:100, activity determined after 60 min, list for plotting

Compound: C#CCN(CCCNC(=O)c1c(F)c(F)c(N=[N+]=[N-])c(F)c1F)[C@@H]1C[C@@H]2C[C@H]([C@H]1C)C2(C)C [PRP]
- IC50 (S. mansoni TGR; 15 min preincubation (enzyme + 100 µM NADPH + compound)): 34.9 ± 6.11 µM
- inhibition at 15 µM (S. mansoni TGR; read-out: TGR % inhibition): 30.8%
- inhibition at 30 µM (S. mansoni TGR; read-out: TGR % inhibition): 47.5%
- inhibition at 66.7 µM (S. mansoni TGR; read-out: TGR % inhibition): 55.1%
- 800 nm Normalized Signal ([1]; PRP 5 µM, NADPH 0 µM): 1385
- 800 nm Normalized Signal ([1]; PRP 5 µM, NADPH 100 µM): 2194
- 800 nm Normalized Signal ([1]; PRP 50 µM, NADPH 0 µM): 298
- 800 nm Normalized Signal ([1]; PRP 50 µM, NADPH 100 µM): 1875
- labeling of S. mansoni histone deacetylase 8 ([1]; with or without NADPH): not labeled
- labeling of TGR with NADPH versus without NADPH (recombinant TGR; 5 and 50 μM PRP): more effective
- 800 nm Normalized Signal (recombinant TGR; PRP 2 µM, NADPH 0 µM): 57760
- 800 nm Normalized Signal (recombinant TGR; PRP 2 µM, NADPH 100 µM): 84928
- 800 nm Normalized Signal (recombinant TGR; PRP 10 µM, NADPH 0 µM): 151239
- 800 nm Normalized Signal (recombinant TGR; PRP 10 µM, NADPH 100 µM): 231567

Compound: COc1ccc([N+](=O)[O-])c(S(=O)(=O)c2ccc(Cl)cc2)n1 [TRi-1, reference compound]
- NADPH consumption by TGR after exposure (TGR [2]): converted TGR to a pro-oxidant enzyme
- NADPH consumption (rate/ΔOD340) (TGR [2]; replicates): -0.001513 and -0.00148 and -0.001553
- reversibility of TGR inhibition (TGR [3]; 250 µM inhibitor, 100-fold jump dilution): irreversible
- % Activity (ID list), D0 (TGR [3]; [6]): -1.4% and -0.0373% and 0.6%
- % Inhibition (ID list), D0 (TGR [3]; [6]): 101.4% and 100.0% and 99.4%
- % Activity (ID list), D60 (TGR [3]; [7]): 2.1% and 1.1% and 1.2%
- % Inhibition (ID list), D60 (TGR [3]; [7]): 97.9% and 98.9% and 98.8%
- % Activity, 0 min (TGR [3]; [0, D0]: 15 min preincubation inhibitor + TGR + NADPH, diluted 1:100, then activity determined immediately, relative to DMSO): -1.437% and -0.03726% and 0.6084%
- Inhibitor (rate), 60 min (TGR [3]; [60, D60]: 15 min preincubation inhibitor + TGR + NADPH, diluted 1:100, then activity determined after 60 min, raw rate): 0.001123 and 0.0005896 and 0.0006645
- % Activity, 60 min (TGR [3]; [60, D60]: 15 min preincubation inhibitor + TGR + NADPH, diluted 1:100, then activity determined after 60 min, relative to DMSO): 2.121% and 1.115% and 1.1607%
- Inhibitor (rate), -15 (TGR [3]; [-15]: 15 min preincubation inhibitor + TGR + NADPH, then activity determined, raw rate, replicates): 0.0012 and -0.0009 and -0.001
- % Activity, -15 (TGR [3]; [-15]: 15 min preincubation inhibitor + TGR + NADPH, then activity determined, relative to DMSO, replicates): 2.39% and -1.793% and -3.401%
- % Inhibition (ID list) (TGR [3]; before dilution (-15), list for plotting): 101.0% and 101.8% and 97.0%
- reaction with thiol or selenol groups in GSH or protected selenocysteine [4]: An adduct between TRi-1 was detected
- Superoxide production, Pyrogallol red consumption monitored ΔA540 (TGR [5]; condition not given): -0.002664 and -0.002628 and -0.002752
- Superoxide production, Pyrogallol red consumption monitored ΔA540 (TGR [5]; second of the two columns per substance (condition not given)): -5.614e-5 and -5.998e-5
